Measured values published in PubChem BioAssay (NCI).
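Five compound concentrations were applied to cells in 96-well plates for 48 hours; endpoints were derived by simple linear interpolation of the resulting dose-response curve. Abbreviation: GI50, concentration required for 50% inhibition of growth. TGI: total growth inhibition.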

Key:
Test in all cases: NCI-60 cell line screen, 48 h
SK-MEL-28 melanoma = system: SK-MEL-28 melanoma
TK-10 renal = system: TK-10 renal
RXF 393 renal = system: RXF 393 renal
OVCAR-4 ovarian = system: OVCAR-4 ovarian
HCC-2998 colon = system: HCC-2998 colon
CAKI-1 renal = system: CAKI-1 renal
KM12 colon = system: KM12 colon
DU-145 prostate = system: DU-145 prostate
PC-3 prostate = system: PC-3 prostate
HS 578T breast = system: HS 578T breast

Compound	TGI (SK-MEL-28 melanoma) [µM]	TGI (TK-10 renal) [µM]	TGI (RXF 393 renal) [µM]	TGI (OVCAR-4 ovarian) [µM]	TGI (HCC-2998 colon) [µM]	TGI (CAKI-1 renal) [µM]	TGI (KM12 colon) [µM]	TGI (DU-145 prostate) [µM]	TGI (PC-3 prostate) [µM]	TGI (HS 578T breast) [µM]	GI50 (SK-MEL-28 melanoma) [µM]	GI50 (TK-10 renal) [µM]	GI50 (DU-145 prostate) [µM]	GI50 (OVCAR-4 ovarian) [µM]	GI50 (HCC-2998 colon) [µM]	GI50 (CAKI-1 renal) [µM]	GI50 (PC-3 prostate) [µM]	GI50 (KM12 colon) [µM]	GI50 (HS 578T breast) [µM]	GI50 (RXF 393 renal) [µM]
O=C(CC1SC(=Nc2ccccc2Cl)NC1=O)Nc1ccc(Cl)cc1 (stereo not given)	> 100	> 100	> 100	> 100	> 100	> 100	> 100	–	–	–	–	–	–	–	–	–	–	–	–	–
COc1cc2ccc3c4cc(OC)c(OC(C)C)cc4c[n+](C)c3c2cc1OC	> 100	> 100	> 100	> 100	> 100	> 100	> 100	–	–	–	–	–	–	–	–	–	–	–	–	–
COc1ccc(/C=C2\CCc3ccccc3C2=O)cc1OC	73.2	> 100	–	79.6	> 100	> 100	39.5	–	–	–	–	–	–	–	–	–	–	–	–	–
[N-]=[N+]=NC1C2CC3CC(C2)CC1C3 (stereo not given)	> 100	> 100	–	> 100	> 100	> 100	> 100	–	–	–	–	–	–	–	–	–	–	–	–	–
S=C1SCN(C2CCCCCCCCCCC2)CN1C1CCCCCCCCCCC1	> 100	> 100	> 100	> 100	–	> 100	> 100	> 100	> 100	> 100	–	–	–	–	–	–	–	–	–	–
COc1ccc2c(c1OC)C(C=C(c1ccccc1)c1ccccc1)CN(C)C2 (stereo not given)	57.9	76.1	–	> 100	67.1	45.3	48.9	–	–	–	–	–	–	–	–	–	–	–	–	–
CN=C(N)NC	> 100	> 100	> 100	> 100	> 100	–	> 100	–	–	–	–	–	–	–	–	–	–	–	–	–
C/C(=N\NS(=O)(=O)c1c(C)cc(C)cc1C)c1ccc[n+]([O-])n1	27.6	–	–	44.6	> 100	18.1	> 100	–	–	–	–	–	–	–	–	–	–	–	–	–
CCOc1ccc(N=Cc2ccc3ccccc3n2)cc1	> 100	> 100	> 100	> 100	> 100	> 100	> 100	–	–	–	–	–	–	–	–	–	–	–	–	–
CC(=O)Oc1cc(Cl)c(OC(C)=O)c2c(OC(C)=O)c(C)c(O[Si](C)(C)C(C)(C)C)cc12	11.9	17.6	11.2	26.2	15.5	30.7	26.1	–	–	–	–	–	–	–	–	–	–	–	–	–
O=c1c(-c2nc3ccccc3[nH]2)cc2ccccc2n1Cc1cn(Cc2ccccc2Cl)nn1	3.35	6.65	–	3.44	37.4	4.74	7.72	3.21	7.5	5.91	1.82	2.52	1.72	1.72	4.19	1.93	2.6	2.5	1.93	–
CC1=CC2=C(C#N)C(=O)OC2(C)C(c2ccccc2)C1 (stereo not given)	> 100	> 100	–	> 100	–	–	> 100	> 100	> 100	> 100	–	–	–	–	–	–	–	–	–	–
Fc1ccc2c(c1)cc1ccc3cccc4ccc2c1c34	> 100	> 100	> 100	> 100	> 100	> 100	> 100	–	–	–	–	–	–	–	–	–	–	–	–	–
Cc1nc(-n2nc(-c3ccccc3)cc2-c2ccccc2)sc1C(=O)/C=C/c1ccc(Cl)cc1	33.6	> 100	28.1	–	29.9	62.7	25.6	–	–	–	–	–	–	–	–	–	–	–	–	–
COC(=O)c1ccc(/C=C/S(=O)(=O)c2ccccc2)cc1	> 100	> 100	> 100	> 100	–	> 100	> 100	–	–	–	–	–	–	–	–	–	–	–	–	–
CN[C@H]1CC[C@]23C[C@]24CC[C@]2(C)[C@@H]([C@H](C)N(C)C)CC[C@@]2(C)[C@@H]4CC[C@H]3C1(C)C	25.8	39.3	–	53.7	28.7	45.9	31.8	28.4	29	48	–	–	–	–	–	–	–	–	–	–
CCOC(=O)C(=O)C(/C(=N/N(C)C)C(=O)Nc1ccc(C)cc1C)c1nc2ccccc2[nH]c1=O (stereo not given)	> 100	> 100	> 100	> 100	> 100	> 100	> 100	–	> 100	> 100	–	–	–	–	–	–	–	–	–	–
CC(CCC(=O)O)c1ccc(Br)cc1 (stereo not given)	> 100	> 100	> 100	> 100	> 100	> 100	> 100	–	–	–	–	–	–	–	–	–	–	–	–	–
CC(C)c1cc(C(=O)[O-])c(O)c(C(C)C)c1.CC(C)c1cc(C(=O)[O-])c(O)c(C(C)C)c1.CC(C)c1cc(C(=O)[O-])c(O)c(C(C)C)c1.CC(C)c1cc(C(=O)[O-])c(O)c(C(C)C)c1.CC(C)c1cc(C(=O)[O-])c(O)c(C(C)C)c1.CC(C)c1cc(C(=O)[O-])c(O)c(C(C)C)c1.[Cu+2].[Mn+2].[Mn+2]	45.3	91.7	–	47.8	–	53.3	43.4	–	–	–	20.5	39.5	–	16.1	–	30.9	–	18.2	–	–
CC(=O)OC1(C#N)CC2OC1C1N=NN(C(=O)OC(C)(C)C)C21 (stereo not given)	35.6	> 100	> 31.6	> 31.6	> 100	> 31.6	> 100	–	–	–	–	–	–	–	–	–	–	–	–	–
CCCCCCC(O)C(O)CCC(O)C1CCC(CCCCC(O)CC2=CC(C)OC2=O)O1 (stereo not given)	62.5	> 100	39.7	39.6	34.5	41.6	77.7	–	33.1	6.98	26	22.3	–	–	–	17.1	13.1	24.5	–	22.9
CCN(CC)/[N+]([O-])=N/OCC(C)O (stereo not given)	> 100	> 100	> 100	–	> 100	> 100	> 100	–	–	–	–	–	–	–	–	–	–	–	–	–
CC(C)(C)C1CCC(=O)C(C(O)CC2CC(=O)N(c3ccccc3)C(=O)C2)C1 (stereo not given)	> 100	> 100	> 100	> 100	> 100	> 100	> 100	–	–	–	–	–	–	–	–	–	–	–	–	–
